Data published in PubChem BioAssay (NCI).
“And” between values parts separate entries of the source, which are not always exact repeats. Identical values can stand only once.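 How tested: cells in 96-well plates exposed to compound for 48 hours at five concentrations. GI50 = concentration required for 50% inhibition of growth. Definition used: TGI = concentration required for complete inhibition of growth.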

Tests used:
Assay in all cases: DTP human tumour cell line panel, 48 h
[1] = system: EKVX NSCLC
[2] = system: HS 578T breast
[3] = system: KM12 colon
[4] = system: M14 melanoma
[5] = system: NCI-H522 lung
[6] = system: NCI/ADR-RES ovarian
[7] = system: OVCAR-3 ovarian
[8] = system: OVCAR-4 ovarian
[9] = system: OVCAR-5 ovarian
[10] = system: SK-OV-3 ovarian

COc1cc(OC)cc(C2C3=C(COC3=O)Nc3cc(OC)ccc32)c1 (centres undefined)
GI50 [1]: < 0.01 µM | TGI [1]: > 100 µM | GI50 [2]: < 0.01 µM | TGI [2]: > 64.3 µM | GI50 [3]: < 0.01 µM | TGI [3]: < 0.0106 µM | GI50 [4]: < 0.01 µM | TGI [4]: 0.0111 µM | GI50 [5]: < 0.01 µM | TGI [5]: 0.836 µM | GI50 [6]: < 0.01 µM | GI50 [7]: < 0.01 µM | TGI [7]: < 0.01 µM | GI50 [8]: < 0.01 µM | TGI [8]: 37.6 µM | GI50 [9]: < 0.0201 µM | TGI [9]: > 100 µM | GI50 [10]: < 0.01 µM | TGI [10]: < 0.01 µM

CNCCCNc1nc2ccccc2c2c(=O)c3cc(OC)ccc3sc12
GI50 [1]: 1.72 µM | TGI [1]: 3.7 µM | GI50 [2]: 1.94 µM | TGI [2]: 4.77 µM | GI50 [3]: 1.83 µM | TGI [3]: 3.52 µM | GI50 [4]: 1.99 µM | TGI [4]: 3.82 µM | GI50 [5]: 1.84 µM | TGI [5]: 3.88 µM | GI50 [6]: 1.82 µM | TGI [6]: 3.64 µM | GI50 [7]: 1.82 µM | TGI [7]: 3.43 µM | GI50 [8]: 1.96 µM | TGI [8]: 4.03 µM | GI50 [9]: 1.67 µM | TGI [9]: 3.08 µM

CCCOC(=O)c1c(C)n(C)c2scc[n+]12
GI50 [1]: 13.7 µM | TGI [1]: > 100 µM | GI50 [2]: 19.8 µM | TGI [2]: 74 µM | GI50 [3]: 44.5 µM | TGI [3]: > 100 µM | GI50 [4]: > 100 µM | TGI [4]: > 100 µM | GI50 [5]: 31.4 µM | TGI [5]: > 100 µM | GI50 [6]: > 100 µM | TGI [6]: > 100 µM | GI50 [7]: 30.6 µM | TGI [7]: > 100 µM | GI50 [8]: 37.1 µM | TGI [8]: > 100 µM | GI50 [9]: > 100 µM | TGI [9]: > 100 µM | GI50 [10]: 49.6 µM | TGI [10]: > 100 µM

COc1ccc(-c2cc3c(C)nc(N)nc3n(C3CCC(OCCO)CC3)c2=O)cn1 (centres undefined)
GI50 [1]: 0.0971 µM and 0.0465 µM | TGI [1]: 0.7 µM and 0.396 µM | GI50 [2]: 0.0345 µM and 0.015 µM | TGI [2]: 0.272 µM and 0.113 µM | GI50 [3]: 0.231 µM and 0.209 µM | TGI [3]: 3.9 µM and 2.92 µM | GI50 [4]: 0.099 µM and 0.0686 µM | TGI [4]: 2.69 µM and 1.05 µM | GI50 [5]: 0.052 µM and 0.0337 µM | TGI [5]: 0.8 µM and 0.386 µM | GI50 [6]: 0.141 µM and 0.139 µM | TGI [6]: 2.06 µM and 1.65 µM | GI50 [7]: 0.0614 µM and 0.0395 µM | TGI [7]: 0.486 µM and 0.427 µM | GI50 [8]: 0.14 µM and 0.114 µM | TGI [8]: 2.06 µM and 0.841 µM | GI50 [9]: 0.0734 µM and 0.0489 µM | TGI [9]: 1.95 µM and 1.02 µM | GI50 [10]: 0.044 µM and 0.0814 µM | TGI [10]: 0.291 µM and 0.527 µM

O=C1CSC(c2ccccc2Cl)N1c1nnc(Cn2cnnc2)o1 (centres undefined)
GI50 [1]: 22.3 µM | TGI [1]: > 100 µM | GI50 [2]: 8.62 µM | TGI [2]: 60.9 µM | GI50 [3]: 5.2 µM | TGI [3]: 20.3 µM | GI50 [4]: 6.06 µM | TGI [4]: 24.7 µM | GI50 [5]: 10.4 µM | TGI [5]: 38 µM | GI50 [6]: 6.64 µM | TGI [6]: 83.4 µM | GI50 [7]: 3.4 µM | TGI [7]: 10.7 µM | GI50 [8]: 23.9 µM | TGI [8]: > 100 µM | GI50 [9]: 20.4 µM | TGI [9]: 44.3 µM | GI50 [10]: 14.9 µM | TGI [10]: 75.7 µM

CC(=O)N1CCN(CCNC(=O)n2cc(-c3ccncc3)c(-c3cc(O)cc(Cl)c3)n2)CC1
GI50 [1]: 24.6 µM | TGI [1]: > 100 µM | GI50 [2]: 16.7 µM | TGI [2]: 53.4 µM | GI50 [3]: 14 µM | TGI [3]: 34.4 µM | GI50 [4]: 1.23 µM | TGI [4]: 4.87 µM | GI50 [5]: 14.9 µM | TGI [5]: 34.1 µM | GI50 [6]: 22.1 µM | TGI [6]: > 100 µM | GI50 [7]: 17.3 µM | TGI [7]: 46.5 µM | GI50 [8]: 27.8 µM | TGI [8]: > 100 µM | GI50 [9]: 23.8 µM | TGI [9]: 63.2 µM | GI50 [10]: 12.4 µM | TGI [10]: 25.4 µM

O=C(O)/C(Cc1ccnc2ccccc12)=N\O
TGI [1]: > 100 µM | TGI [2]: > 100 µM | TGI [3]: > 100 µM | TGI [4]: > 100 µM | TGI [5]: > 100 µM | TGI [6]: > 100 µM | TGI [7]: > 100 µM | TGI [8]: > 100 µM | TGI [9]: > 100 µM | TGI [10]: > 100 µM

CCCc1cc(=O)n2c(C(=O)Nc3ccc(F)cc3)c(C(=O)Nc3ccc(F)cc3)sc2n1
GI50 [1]: > 160 µM | TGI [1]: > 160 µM | GI50 [2]: 2.58 µM | TGI [2]: 11.1 µM | GI50 [3]: 111 µM | TGI [3]: > 160 µM | GI50 [4]: 23.5 µM | TGI [4]: 81 µM | GI50 [5]: 73.3 µM | TGI [5]: > 160 µM | GI50 [6]: 134 µM | TGI [6]: > 160 µM | GI50 [7]: 22.9 µM | TGI [7]: 49.8 µM | GI50 [8]: 26.4 µM | TGI [8]: 54.9 µM | GI50 [9]: > 160 µM | TGI [9]: > 160 µM | GI50 [10]: 41.7 µM | TGI [10]: > 160 µM

N#CC1=C(N)Oc2c(ccc3ccccc23)C1c1cc(=O)oc2ccc(Cl)cc12 (centres undefined)
GI50 [1]: 3.79 µM | TGI [1]: > 100 µM | GI50 [2]: 0.656 µM | TGI [2]: 47.2 µM | GI50 [3]: 0.453 µM | TGI [3]: 31.4 µM | GI50 [4]: 0.441 µM | TGI [4]: > 100 µM | GI50 [5]: 0.348 µM | TGI [5]: 2.97 µM | GI50 [6]: 0.522 µM | TGI [6]: 36.8 µM | GI50 [7]: 0.386 µM | TGI [7]: 12.3 µM | GI50 [8]: 4.31 µM | TGI [8]: > 100 µM | GI50 [9]: 4.1 µM | TGI [9]: > 100 µM | GI50 [10]: 0.965 µM | TGI [10]: > 100 µM

Cc1cc(N(CCOS(C)(=O)=O)CCOS(C)(=O)=O)ccc1C(=O)O
GI50 [1]: > 100 µM | TGI [1]: > 100 µM | GI50 [2]: > 100 µM | TGI [2]: > 100 µM | GI50 [3]: > 100 µM | TGI [3]: > 100 µM | GI50 [4]: > 100 µM | TGI [4]: > 100 µM | GI50 [5]: 10.7 µM | TGI [5]: > 100 µM | GI50 [6]: > 100 µM | TGI [6]: > 100 µM | GI50 [7]: > 100 µM | TGI [7]: > 100 µM | GI50 [8]: > 100 µM | TGI [8]: > 100 µM | GI50 [9]: > 100 µM | TGI [9]: > 100 µM | GI50 [10]: > 100 µM | TGI [10]: > 100 µM

CN(C)CC1CC/C(=C\c2ccc3c(c2)OCO3)C1=O (centres undefined)
TGI [1]: 39.4 µM | TGI [2]: > 100 µM | TGI [3]: 18.9 µM | TGI [4]: 15 µM | TGI [5]: 8.51 µM | TGI [6]: 12.4 µM | TGI [7]: 15.3 µM | TGI [8]: 18.9 µM | TGI [9]: 39.3 µM | TGI [10]: > 57 µM

CN1Cc2ccccc2/C=C\c2ccccc21
TGI [1]: 92.7 µM | TGI [2]: > 100 µM | TGI [3]: > 100 µM | TGI [4]: > 100 µM | TGI [5]: > 100 µM | TGI [6]: > 100 µM | TGI [7]: > 100 µM | TGI [8]: > 100 µM | TGI [10]: > 100 µM

CS(=O)(=O)c1ccc(Nc2nc(N[C@H]3CCCC[C@H]3N)nc3cc[nH]c(=O)c23)cc1
GI50 [1]: 1.3 µM | TGI [1]: 5.41 µM | GI50 [2]: 1.25 µM | TGI [2]: 4.95 µM | GI50 [3]: 0.491 µM | TGI [3]: 11.9 µM | GI50 [4]: 2.16 µM | TGI [4]: 8.83 µM | GI50 [5]: 0.268 µM | TGI [5]: 1.72 µM | GI50 [6]: > 100 µM | TGI [6]: > 100 µM | GI50 [7]: 1.3 µM | TGI [7]: 4.67 µM | GI50 [8]: 1.89 µM | TGI [8]: 9.81 µM | GI50 [9]: 2.52 µM | TGI [9]: > 100 µM | GI50 [10]: 3.17 µM | TGI [10]: > 100 µM

C#C[C@@]1(O)[C@@H](CO)O[C@@H](n2cc(I)c3c(N)ncnc32)[C@@H]1O
GI50 [1]: 0.408 µM | TGI [1]: 5.37 µM | GI50 [2]: 0.785 µM | TGI [2]: 7.83 µM | GI50 [3]: 0.0962 µM | TGI [3]: > 100 µM | GI50 [4]: 0.49 µM | TGI [4]: 9.51 µM | GI50 [5]: 0.0993 µM | TGI [5]: 0.6 µM | GI50 [6]: 0.0731 µM | TGI [6]: 7.9 µM | GI50 [8]: 0.809 µM | TGI [8]: > 100 µM | GI50 [9]: 0.933 µM | TGI [9]: > 100 µM | GI50 [10]: 0.0343 µM | TGI [10]: 0.729 µM
